Among the data in patent US6953812B2, “Glucagon antagonists/inverse agonists” (Novo Nordisk, Inc., priority 2000, dated 2005) are IC50 values, retold here.

One assay has as its target T1, human GIP receptor (Homo sapiens, UniProt P48546).
T1 construct: expressed in transfected cells; host or cells: BHK (baby hamster kidney) cells, membrane preparation
T1 sequence (P48546 22-466): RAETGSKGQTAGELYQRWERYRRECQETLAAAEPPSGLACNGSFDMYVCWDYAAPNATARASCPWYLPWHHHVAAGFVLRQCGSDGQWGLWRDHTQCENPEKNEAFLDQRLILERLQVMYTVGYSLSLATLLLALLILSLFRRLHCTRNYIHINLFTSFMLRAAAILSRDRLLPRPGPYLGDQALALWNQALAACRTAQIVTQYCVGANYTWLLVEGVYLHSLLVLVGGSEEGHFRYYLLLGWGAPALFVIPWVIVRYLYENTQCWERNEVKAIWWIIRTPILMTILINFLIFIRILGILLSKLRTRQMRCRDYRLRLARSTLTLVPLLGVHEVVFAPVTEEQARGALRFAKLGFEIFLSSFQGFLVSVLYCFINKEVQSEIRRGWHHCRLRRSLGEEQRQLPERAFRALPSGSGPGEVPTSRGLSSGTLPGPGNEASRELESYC
Kind of assay: GIP Binding Assay. The protocol:
BHK (baby hamster kidney cell line) cells are transfected with the human GIP receptor and a membrane preparation of the cells is prepared.
(§1) All steps in the membrane preparation are kept on ice or performed at 4° C. BHK cells are harvested and centrifuged. The pellet is resuspended in homogenisation buffer (25 mM) HEPES, pH=7.4, 2.5 mM CaCl2, 1.0 mM MgCl2, 250 mg/L bacitracin, 0.1 mM Pefabloc), homogenised 2×10 sec using Polytron 10-35 homogenizer (Kinematica) and added the same amount of homogenisation buffer as used for resuspension. After centrifugation (15 min at 2000×g) the supernatant is transferred to cold centrifuge tubes and centrifuged for 45 min at 40.000×g. The pellet is resuspended in homogenisation buffer, homogenised 2×10 sec (Polytron) and additional homogenisation buffer is added. The suspension is centrifuged for 45 min at 40.000×g and the pellet is resuspended in resuspension buffer (25 mM HEPES, pH=7.4, 2.5 mM CaCl2, 1.0 mM MgCl2) and homogenised 2×10 sec. (Polytron). […] Stabilisation buffer (25 mM HEPES, pH=7.4, 2.5 mM CaCl2, 1.0 mM MgCl2, 1% bovine serum albumin, 500 mg/L bacitracin, 2.5 M sucrose) is added and the membrane preparation is stored at −80° C.
The GIP binding assay is carried out in opti plates (Polystyrene Microplates, Packard). 50 μL assay buffer (25 mM HEPES, pH=7.5, 2.5 mM CaCl2, 1.0 mM MgCl2, 0.003% Tween-20, 0.005% bacitracin, 0.05% sodium azide) and 5 μL GIP or test compound (in DMSO) are added to each well. […] Finally 50 μL WGA beads containing 1 mg beads are transferred to the well. The opti plates are incubated for 3.5 hours on a shaker and then settled for 8-48 hours. The opti plates are counted in a Top-counter. Non-specific binding is determined with 500 nM of GIP.

The next assay has as its target T2, human glucagon receptor (Homo sapiens, UniProt P47871).
T2 construct: expressed in transfected cells; host or cells: BHK (baby hamster kidney) cells, membrane preparation
Kind of assay: Glucagon Binding Assay (II). The settings on record: membranes of BHK cells transfected with human glucagon receptor, 125I-glucagon, SPA; read-out: Glu Bd Assay (II) IC50. The protocol: Glucagon Binding Assay (II)
BHK (baby hamster kidney cell line) cells are transfected with the human glucagon receptor and a membrane preparation of the cells is prepared.
as §1, with “mM” for “mM)”
The glucagon binding assay is carried out in opti plates (Polystyrene Microplates, Packard). 50 μL assay buffer (25 mM HEPES, pH=7.5, 2.5 mM CaCl2, 1.0 mM MgCl2, 0.003% Tween-20, 0.005% bacitracin, 0.05% sodium azide) and 5 μL glucagon or test compound (in DMSO) are added to each well. […] Finally 50 μL WGA beads containing 1 mg beads are transferred to the well. The opti plates are incubated for 4 hours on a shaker and then settled for 8-48 hours. The opti plates are counted in a Topcounter. Non-specific binding is determined with 500 nM of glucagon.

Setting [1] is: membranes of BHK cells transfected with human GIP receptor, 125I-GIP, SPA, read-out: GIP Bd Assay IC50.

SMILES strings stand for the structures. Where two headings read alike, the source gives them in different places.

T2 sequence (P47871 26-477): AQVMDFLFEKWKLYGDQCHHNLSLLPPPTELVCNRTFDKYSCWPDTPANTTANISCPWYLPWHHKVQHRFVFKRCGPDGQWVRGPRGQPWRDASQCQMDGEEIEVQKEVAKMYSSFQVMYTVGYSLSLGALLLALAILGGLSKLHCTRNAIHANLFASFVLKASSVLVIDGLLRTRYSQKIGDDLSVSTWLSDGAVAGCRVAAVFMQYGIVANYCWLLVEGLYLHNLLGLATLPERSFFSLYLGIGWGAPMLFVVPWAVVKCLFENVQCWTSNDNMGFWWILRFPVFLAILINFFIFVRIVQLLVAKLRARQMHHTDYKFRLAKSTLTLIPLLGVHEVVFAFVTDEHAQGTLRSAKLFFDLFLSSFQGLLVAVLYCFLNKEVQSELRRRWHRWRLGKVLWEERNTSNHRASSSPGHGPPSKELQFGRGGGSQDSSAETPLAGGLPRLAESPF

By IC50 is commonly meant the concentration needed to halve the response being measured. As to `O=C(NCC(O)C(=O)O)c1ccc(CN(C(=O)Nc2cc(Cl)cc(Cl)c2)c2ccc(C3=CCCCC3)cc2)cc1` (racemic) [Example 17, (RS)-3-{4-[1-(4-Cyclohex-1-enylphenyl)-3-(3,5-dichlorophenyl)ureidomethyl]benzoylamino}-2-hydroxypropionic acid], the 50% inhibitory concentration (IC50) came out at 448 nM at human GIP receptor and 22 nM at human glucagon receptor.
As to `O=C(NC[C@@H](O)C(=O)O)c1ccc(CN(C(=O)Nc2ccc(SC(F)(F)F)cc2)c2ccc(C3CCCCC3)cc2)cc1` [Example 24, (R)-3-{4-[1-(4-Cyclohexylphenyl)-3-(4-trifluoromethylsulfanylphenyl)ureidomethyl]benzoylamino}-2-hydroxypropionic acid], the half-inhibitory concentration (IC50) on human GIP receptor (setting [1]) was 37 nM; on human glucagon receptor, 4.4 nM.
In the same order, the values of `CC(C)(C)c1cccc(NC(=O)N(Cc2ccc(C(=O)NC[C@@H](O)C(=O)O)cc2)c2ccc(C3CCCCC3)cc2)c1` [Example 38, (R)-3-{4-[3-(3-tert-Butylphenyl)-1-(4-cyclohexylphenyl)ureidomethyl]benzoylamino)-2-hydroxypropionic Acid] are 221 nM and 33 nM.
Take `O=C(NC[C@@H](O)C(=O)O)c1ccc(CN(C(=O)Cc2ccc(OC(F)(F)F)cc2)c2ccc(C3CCCCC3)cc2)cc1` [Example 63, (R)-3-[4-({(4-Cyclohexylphenyl)-[(4-trifluoromethoxyphenyl)acetyl]amino}methyl)benzoylamino]-2-hydroxypropionic acid]: the concentration for half-maximal inhibition (IC50) is more than 3000 nM at human GIP receptor (setting [1]) and 336 nM at human glucagon receptor.
For `CC(C)(C)c1ccc(N(Cc2ccc(C(=O)NC[C@@H](O)C(=O)O)cc2)C(=O)Nc2ccc(F)c(F)c2)cc1` [Example 46, (R)-3-{4-[1-(4-tert-Butylphenyl)-3-(3,4-difluorophenyl)ureidomethyl]benzoylamino}-2-hydroxypropionic acid], the half-maximal inhibitory concentration (IC50) was found to be 1170 nM at human GIP receptor (setting [1]) and 507 nM on human glucagon receptor.
In the same order, the values of `O=C(NC[C@@H](O)C(=O)O)c1ccc(CN(C(=O)Cc2cc(C(F)(F)F)cc(C(F)(F)F)c2)c2ccc(C3CCCCC3)cc2)cc1` [Example 66, (R)-3-(4-{([(3,5-Bis(trifluoromethyl)phenyl)acetyl]-(4-cyclohexylphenyl)amino)methyl}benzoylamino)-2-hydroxypropionic acid] are more than 3000 nM and 325 nM.
Take `O=C(NC[C@@H](O)C(=O)O)c1ccc(CN(C(=O)Nc2ccc(Cl)c(C(F)(F)F)c2)c2ccc(C3CCCCC3)cc2)cc1` [Example 49, (R)-3-{4-[3-(4-Chloro-3-trifluoromethylphenyl)-1-(4-cyclohexylphenyl)ureidomethyl]benzoylamino}-2-hydroxypropionic acid]: the concentration for half-maximal inhibition (IC50) turned out to be 160 nM at human GIP receptor (setting [1]) and 25 nM at human glucagon receptor.
With `Cc1cc(C)cc(NC(=O)N(Cc2ccc(C(=O)NC[C@@H](O)C(=O)O)cc2)[C@H]2CC[C@H](C(C)(C)C)CC2)c1` [Example 26, Trans-(R)-3-{4-[-3-(3,5-bis(methyl)phenyl)-1-(4-tert-butylcyclohexyl)ureidomethyl]benzoylamino}-2-hydroxypropionic Acid], the 50% inhibitory concentration (IC50) was determined as 703 nM at human GIP receptor (setting [1]) and 92 nM on human glucagon receptor.
The like results for `N#Cc1cc(NC(=O)N(Cc2ccc(C(=O)NC[C@@H](O)C(=O)O)cc2)c2ccc(C3=CCCCC3)cc2)cc(C(F)(F)F)c1` [Example 7, (R)-3-{4-[3-(3-Cyano-5-trifluoromethylphenyl)-1-(4-cyclohex-1-enylphenyl)ureidomethyl]benzoylamino}-2-hydroxypropionic acid] were, in that order, 292 nM and 26 nM.
In the same order, the values of `O=C(NC[C@@H](O)C(=O)O)c1ccc(CN(CC(c2ccccc2)c2ccccc2)C(=O)c2cc3cc(OC(F)(F)F)ccc3[nH]2)cc1` [Example 62, (R)-3-(4-{[(2,2-Diphenylethyl)-(5-trifluoromethoxy-1H-indole-2-carbonyl)amino]methyl}-benzoylamino)-2-hydroxypropionic acid] are more than 3000 nM and 757 nM.
Turning to `O=C(NC[C@@H](O)C(=O)O)c1ccc(CN(C(=O)Cc2cccc(Br)c2)c2ccc(C3CCCCC3)cc2)cc1` [Example 69, (R)-3-(4-{[[(3-Bromophenyl)acetyl]-(4-cyclohexylphenyl)amino]methyl}benzoylamino)-2-hydroxypropionic acid], the IC50 is more than 3000 nM at human GIP receptor (setting [1]) and 430 nM at human glucagon receptor.
The like results for `CC(C)(C)c1ccc(N(Cc2ccc(C(=O)NC[C@@H](O)C(=O)O)cc2)C(=O)Nc2ccc3c(c2)C(F)(F)OC(F)(F)O3)cc1` [Example 44, (R)-3-{4-[1-(4-tert-Butylphenyl)-3-(2,2,4,4-tetrafluoro-4H-benzo[1,3]dioxin-6-yl)ureidomethyl]benzoylamino}-2-hydroxypropionic acid] were, in that order, 291 nM and 39 nM.
In the same order, the values of `O=C(NC[C@@H](O)C(=O)O)c1ccc(CN(C(=O)Nc2cc(Br)cc(C(F)(F)F)c2)c2ccc(C3=CCCCC3)cc2)cc1` [Example 9, (R)-3-{4-[3-(3-Bromo-5-trifluoromethylphenyl)-1-(4-cyclohex-1-enylphenyl)ureidomethyl]benzoylamino}-2-hydroxypropionic acid] are 285 nM and 11 nM.
The like results for `N#Cc1cc(NC(=O)N(Cc2ccc(C(=O)NC[C@@H](O)C(=O)O)cc2)c2ccc(C3CCCCC3)cc2)cc(C(F)(F)F)c1` [Example 8, (R)-3-{4-[3-(3-Cyano-5-trifluoromethylphenyl)-1-(4-cyclohexylphenyl)ureidomethyl]benzoylamino}-2-hydroxypropionic acid] were, in that order, 316 nM and 14 nM.
`O=C(NC[C@@H](O)C(=O)O)c1ccc(CN(C(=O)Cc2ccc3ccccc3c2)c2ccc(C3CCCCC3)cc2)cc1` [Example 71, (R)-3-(4-{[(4-Cyclohexylphenyl)-(2-naphthylacetyl)amino]methyl}benzoylamino)-2-hydroxypropionic acid]: the half-maximal inhibitory concentration (IC50) on human GIP receptor (setting [1]) is more than 3000 nM; at human glucagon receptor, 886 nM.
The like results for `O=C(NC[C@@H](O)C(=O)O)c1ccc(CN(C(=O)Cc2ccc(-c3ccccc3)cc2)c2ccc(C3CCCCC3)cc2)cc1` [Example 70, (R)-3-(4-{[(Biphenyl-4-ylacetyl)-(4-cyclohexylphenyl)amino]methyl}benzoylamino)-2-hydroxypropionic acid] were, in that order, more than 3000 nM and 740 nM.
`CC(C)(C)c1ccc(N(Cc2ccc(C(=O)NC[C@@H](O)C(=O)O)cc2)C(=O)Nc2ccc(Cl)c(Cl)c2)cc1` [Example 40, (R)-3-{4-[1-(4-tert-butylphenyl)-3-(3,4-dichlorophenyl)ureidomethyl]benzoylamino}-2-hydroxypropionic acid]: the figures for the IC50 on human GIP receptor (setting [1]) and at human glucagon receptor were 800 nM and 107 nM, respectively.
